Assay results as given in paper PMC8273887 (Journal of Medicinal Chemistry, 2021).

Assays:
[1] = Stability in simulated gastric fluid (SGF); assay type: in vitro ADME, porcine; conditions: simulated gastric fluid (SGF) with pepsin, pH 1.3, 15 μL of 1 mM peptide stock in 285 μL SGF, 37 °C, samples 0 min-24 h quenched with 0.2 M Na2CO3, RP-HPLC/LC-MS peak area as % of time 0, exponential one-phase decay fit, read-out: t1/2 in SGF
Procedure: (§1) We exposed TFF3(C^57Acm) and TFF3 homodimer to simulated gastric fluid (SGF, containing pepsin, pH 1.3) and simulated intestinal fluid (SIF, containing pancreatic enzymes, pH 6.8), and monitored the mixture over 24 h by analytical RP-HPLC and MS. The N- and C-termini of TFF3 and its homodimer were readily truncated in both SGF and SIF (Figure 4A,B). In SGF, TFF3 was cleaved at Leu^6/Ser^7 followed by cleavage at Glu^54/Ala^55 (t1/2 < 5 min). In SIF, TFF3 was cleaved first at Thr^58/Phe^59 followed by cleavage at Leu^6/Ser^7, Glu^56/Cys^57, and Ala^55/Glu^56 (t1/2 < 5 min). TFF3 homodimer, in both SGF (t1/2 ∼ 40 min) and SIF (t1/2 < 5 min), was first broken down to monomeric TFF3 through simultaneous cleavage at Leu^6 and Glu^54 or Ala^55, eventually leading to the same metabolites as TFF3 (Figure 4B).
(§2) Simulated gastric fluid (SGF) was prepared by dissolving 20 mg of NaCl and 8 mg of pepsin in 70 μL of concentrated HCl (32%), and the volume was diluted to 10 mL with Milli-Q water (pH 1.3).[76],[77] Simulated intestinal fluid (SIF) was prepared by dissolving 68 mg of KH2PO4 in 500 μL of Milli-Q water followed by the addition of 800 μL of 0.2 M NaOH and 100 mg of porcine pancreatin, and the volume was adjusted to 10 mL with Milli-Q water (pH 6.8).[76],[77] Peptide stock solution (1 mM; 15 μL) was added to SGF (285 μL) or SIF (285 μL) and incubated at 37 °C. Samples (30 μL) from SGF and SIF were taken at 0, 5, 15, and 30 min and 1, 2, 4, 8, and 24 h timepoints and subsequently quenched with 30 μL of 0.2 M Na2CO3 (SGF) or 30 μL of 5% aqueous TFA (SIF). The samples were analyzed by analytical RP-HPLC (30 μL) and/or LC-MS (20 μL). The amount of peptide remaining was determined by measuring the peak area and expressing it as a % of the peak area at time 0. Peptide half-life (t1/2) was determined from the peptide degradation profiles using an exponential one-phase decay fit in Prism (version 7, GraphPad, La Jolla). LC-MS analysis was performed in a Q-Star Pulsar mass spectrometer (SCIEX, Ontario, Canada), and the raw data spectra were processed using the peptide reconstruction tool in the BioAnalyst software to identify the mass of the metabolites. The stability of the disulfide bonds was assessed through incubation of the peptides (10 μM) with 10 equiv of reduced glutathione (GSH; 100 μM) in sodium phosphate (50 mM) buffer at pH 7.2. Samples were taken at timepoints 0, 4, 8, and 24 h, quenched by adding 10% TFA, and analyzed by analytical RP-HPLC using an analytical C3 column (Agilent Zorbax SB-C3, 5 μm, 2.1 mm × 250 mm, 300 Å).

[2] = Stability in simulated intestinal fluid (SIF); assay type: in vitro ADME; conditions: pig, simulated intestinal fluid (SIF) with porcine pancreatin, pH 6.8, 15 μL of 1 mM peptide stock in 285 μL SIF, 37 °C, samples 0 min-24 h quenched with 5% aqueous TFA, RP-HPLC/LC-MS peak area as % of time 0, exponential one-phase decay fit, read-out: t1/2 in SIF
Procedure: as §1, §2

[3] = system: human erythrocytes; assay: Hemolysis analysis; assay type: cell-based; conditions: 1 h, 37 °C, absorbance 405 nm, 0.2–25 μM final concentration, two independent experiments
Text: Considering the therapeutic potential of TFF3, it was important to determine any cytotoxic and hemolytic effects early on to avoid problems in later stages of drug development. We therefore assessed cytotoxicity on HEK-293 cells and hemolytic effects in human erythrocytes. We treated the cells with TFF3(C^57Acm) and TFF3 homodimer and used resazurin, a blue dye that produces strong fluorescence when reduced by living cells, as the readout of the number of viable cells.[60] In the hemolytic assay, we evaluated hemoglobin release, an indicator of erythrocyte lysis, upon exposure to the peptides.
Monomeric and homodimeric TFF3 were serially diluted twofold in 0.9% NaCl and seeded (25 μL) in a 384-well polypropylene plate (0.2–25 μM final concentration). […] The cells were counted using a Neubauer hemocytometer and then diluted to 1 × 10^8/mL in 0.9% NaCl. […] Following incubation, the plates were centrifuged at 1000g for 10 min to pellet cells and debris and then 25 μL of the supernatant was transferred into a 384-well flat-bottom PS plate and absorbance (Abs) was read at 405 nm using a Tecan M1000 Pro monochromator plate reader. Percent hemolysis was calculated using the following equation: Hemolysis (%) = (Abssample – Absnegative/Abspositive – Absnegative) × 100. […]

[4] = target: T1, CXCR4 (Homo sapiens, UniProt P61073); assay: Inositol 1 phosphate (IP1) accumulation assay (HTRF) in COS-7 cells transfected with CXCR4; assay type: cell-based; conditions: 5 min preincubation with peptide (1 or 10 μM final), then CXCL12 10^-12 to 10^-5 M; COS-7/CXCR4; IP1 HTRF
T1 construct: expressed in transfected cells; host or cells: COS-7 (African green monkey), transient co-transfection with GαΔ6qi4myr
Text: CXCR4 is a member of the G protein-coupled receptor (GPCR) family[58] and proposed as a target receptor for TFF3 to mediate wound healing.[30],[39] We therefore pharmacologically characterized TFF3(C^57Acm) and TFF3 homodimer at CXCR4. We used a chimeric Gαiq protein to switch the pathway to the Gαq signaling, which leads to the activation of the phospholipase and allows measurement of CXCR4 activation through the production of inositol 1 phosphate (IP1).[61]−[63] We measured IP1 accumulation upon stimulation with TFF3(C^57Acm) and TFF3 homodimer in fibroblast-like COS-7 cells transiently transfected with CXCR4.[58] This is a competitive immunoassay, based on the HTRF technology, where native IP1 produced by cells compete with labeled IP1 (acceptor) for binding to anti-IP1-cryptate (donor). The specific signal (i.e., Förster resonance energy transfer, FRET) is inversely proportional to the concentration of IP1 in the sample. The calculation of the fluorescence ratio eliminates possible medium interferences.[64]
COS-7 cells (fibroblast-like cells from African green monkey) were transiently co-transfected with the CXCR4 C-terminally fused to eYFP in pVitro2 vector and the untagged chimeric G protein GαΔ6qi4myr in pcDNA3.1 plasmid using Metafectene Pro according to manufacturer’s protocol. The cells were cultured in DMEM with higher glucose and supplemented with 10% FCS without any antibiotics at 37 °C and 5% CO2 in 95% humidity. Cisbio IP-One Gq assay kit was used according to previous description with minor modifications to measure activity.[80] Briefly, a standard curve was prepared in HBSS (Hanks’ balanced salt solution) with 20 mM LiCl to determine the linear range of the assay and 10 000 cells/well were cultured overnight in a 384-well flat white plate (Greiner Bio-one GmbH, Frickenhausen, Germany). TFF3 and its homodimer as well as CXCL12 were diluted in HBSS containing 20 mM LiCl. Stimulation was carried out for 1 h in triplicate at 37 °C. Subsequently, 3 μL of IP1-d2 and 3 μL of Ab-cryptate in lysis buffer were added to the wells and incubated on a tumbler for 60 min at 25 °C. Fluorescence was then measured at 620 and 665 nm and the HTRF (homogeneous time-resolved fluorescence) ratio (665/620 nm) was calculated. Data analysis was performed with Prism (version 7, GraphPad, La Jolla). Tested compounds were normalized to CXCL12 wild type, with the highest HTRF ratio set to 0% and the lowest HTRF ratio set to 100% response. […] The final concentration range of 10^–12 to 10^–5 M to CXCL12 and 1 or 10 μM to TFF3(C^57Acm) and TFF3 homodimer was achieved by adding the compounds from a threefold concentrated stock solution.

[5] = target: chemokine receptor type 4 (CXCR4), C-terminally fused to eYFP (UniProt P61073)
chemokine receptor type 4 (CXCR4), C-terminally fused to eYFP, sequence (P61073 whole entry, the tested form may be a part): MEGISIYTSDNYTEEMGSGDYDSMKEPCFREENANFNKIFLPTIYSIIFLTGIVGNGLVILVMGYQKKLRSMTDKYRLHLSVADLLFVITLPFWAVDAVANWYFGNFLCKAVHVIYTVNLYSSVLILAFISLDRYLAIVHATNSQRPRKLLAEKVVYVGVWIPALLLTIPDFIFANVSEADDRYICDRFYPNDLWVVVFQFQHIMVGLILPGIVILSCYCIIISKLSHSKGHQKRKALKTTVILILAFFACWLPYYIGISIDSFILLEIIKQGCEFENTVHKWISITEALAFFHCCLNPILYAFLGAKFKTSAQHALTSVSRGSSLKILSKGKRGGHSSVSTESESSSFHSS

C-X-C motif chemokine 12 (CXCL12), recombinant human, with an additional N-terminal methionine, sequence (P48061 other isoform, or with tags, fused parts or gaps): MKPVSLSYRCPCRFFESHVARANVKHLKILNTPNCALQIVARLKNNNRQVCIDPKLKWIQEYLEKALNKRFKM
T1 sequence (P61073 whole entry): as the sequence (P61073 whole entry, the tested form may be a part) above

Molecule	half-life at 50 μM [1]	half-life at 50 μM [2]	concentration up to which no hemolytic effect was displayed [3]	effect on the EC50 of CXCL12 at CXCR4 (antagonism) [4]	EC50 of IP1 accumulation (HTRF, IP-One Gq kit) in COS-7 cells transfected with CXCR4 and a chimeric G protein; CXCL12 10^-12 to 10^-5 M [5]
CC[C@H](C)[C@@H]1NC(=O)[C@H](CCCNC(=N)N)NC(=O)[C@H](CO)NC(=O)[C@H](CC(=O)O)NC(=O)[C@H](Cc2ccccc2)NC(=O)[C@@H]2CSSC[C@H](NC(=O)[C@H](CCC(N)=O)NC(=O)[C@H](CC(N)=O)NC(=O)[C@H](C)NC(=O)[C@H](CO)NC(=O)[C@H](CC(C)C)NC(=O)CNC(=O)[C@@H](NC(=O)[C@H](Cc3ccc(O)cc3)NC(=O)[C@H](CCC(=O)O)NC(=O)[C@@H](N)CCC(=O)O)C(C)C)C(=O)N[C@@H](C)C(=O)N[C@@H](C(C)C)C(=O)N3CCC[C@H]3C(=O)N[C@@H](C)C(=O)N[C@@H](CCCCN)C(=O)N[C@@H](CC(=O)O)C(=O)N[C@@H](CCCNC(=N)N)C(=O)N[C@@H](C(C)C)C(=O)N[C@@H](CC(=O)O)C(=O)N[C@H]3CSSC[C@H](NC(=O)CNC(=O)[C@H](CCCNC(=N)N)NC(=O)[C@H](CC(N)=O)NC(=O)[C@H](CC(N)=O)NC(=O)[C@H](CSSC[C@@H](C(=O)N[C@@H](Cc4ccccc4)C(=O)N[C@@H](CCCCN)C(=O)N4CCC[C@H]4C(=O)N[C@@H](CC(C)C)C(=O)N[C@@H](CCC(N)=O)C(=O)N[C@@H](CCC(=O)O)C(=O)N[C@@H](C)C(=O)N[C@@H](CCC(=O)O)C(=O)N[C@@H](CSSC[C@H](NC(=O)[C@H](CCC(=O)O)NC(=O)[C@H](C)NC(=O)[C@H](CCC(=O)O)NC(=O)[C@H](CCC(N)=O)NC(=O)[C@H](CC(C)C)NC(=O)[C@@H]4CCCN4C(=O)[C@H](CCCCN)NC(=O)[C@H](Cc4ccccc4)NC(=O)[C@@H]4CSSC[C@@H]5NC(=O)[C@H](CCC(=O)O)NC(=O)[C@H](CCCCN)NC(=O)[C@@H]6CCCN6C(=O)[C@H]([C@@H](C)O)NC(=O)[C@H](C(C)C)NC(=O)[C@H](Cc6c[nH]cn6)NC(=O)[C@@H]6CCCN6C(=O)[C@H](Cc6ccc(O)cc6)NC(=O)CNC(=O)[C@@H]6CSSC[C@H](NC(=O)CNC(=O)[C@H](CCCNC(=N)N)NC(=O)[C@H](CC(N)=O)NC(=O)[C@H](CC(N)=O)NC5=O)C(=O)N[C@@H](CSSC[C@H](NC(=O)[C@H](CCC(N)=O)NC(=O)[C@H](CC(N)=O)NC(=O)[C@H](C)NC(=O)[C@H](CO)NC(=O)[C@H](CC(C)C)NC(=O)CNC(=O)[C@@H](NC(=O)[C@H](Cc5ccc(O)cc5)NC(=O)[C@H](CCC(=O)O)NC(=O)[C@@H](N)CCC(=O)O)C(C)C)C(=O)N[C@@H](C)C(=O)N[C@@H](C(C)C)C(=O)N5CCC[C@H]5C(=O)N[C@@H](C)C(=O)N[C@@H](CCCCN)C(=O)N[C@@H](CC(=O)O)C(=O)N[C@@H](CCCNC(=N)N)C(=O)N[C@@H](C(C)C)C(=O)N[C@@H](CC(=O)O)C(=O)N6)C(=O)N[C@@H](Cc5ccccc5)C(=O)N[C@@H](CC(=O)O)C(=O)N[C@@H](CO)C(=O)N[C@@H](CCCNC(=N)N)C(=O)N[C@@H]([C@@H](C)CC)C(=O)N5CCC[C@H]5C(=O)NCC(=O)N[C@@H](C(C)C)C(=O)N5CCC[C@H]5C(=O)N[C@@H](Cc5c[nH]c6ccccc56)C(=O)N4)C(=O)N[C@H](C(=O)N[C@@H](Cc4ccccc4)C(=O)O)[C@@H](C)O)C(=O)N[C@H](C(=O)N[C@@H](Cc4ccccc4)C(=O)O)[C@@H](C)O)NC(=O)[C@H](Cc4c[nH]c5ccccc45)NC(=O)[C@@H]4CCCN4C(=O)[C@H](C(C)C)NC(=O)CNC(=O)[C@@H]4CCCN4C1=O)NC(=O)[C@H](CCC(=O)O)NC(=O)[C@H](CCCCN)NC(=O)[C@@H]1CCCN1C(=O)[C@H]([C@@H](C)O)NC(=O)[C@H](C(C)C)NC(=O)[C@H](Cc1c[nH]cn1)NC(=O)[C@@H]1CCCN1C(=O)[C@H](Cc1ccc(O)cc1)NC(=O)CNC3=O)C(=O)N2 [TFF3 homodimer]	~40 min	< 5 min	> 25 µM	not affected	
C-X-C motif chemokine 12 (CXCL12), recombinant human, with an additional N-terminal methionine (from UniProt P48061 22-93) (ligand)					5.9 nM
